Structures can show the parent of a compound that is named as a salt. Where two headings read alike, the source gives them in different places.
Columns and labels:
[1] = tested on: human platelet rich plasma (PRP); test: Inhibition of blood platelet aggregation in human platelet rich plasma (PRP), test of Professor Born, optical density; type: cell-based; conditions: 0.45 ml human PRP, two separate tests, two donors
Procedure: That the 7-fluoro prostacyclins are potent blood platelet anti-aggregating agents can be seen when the following compounds:
were tested against PGI2 for their blood platelet anti-aggregation properties by the standard test described by Professor Born in Nature, 194 927, (1962).
In this test, the ability of the above compounds to inhibit aggregation of blood platelets in 0.45 ml of human platelet rich plasma (PRP) was measured. Aggregation was induced by the addition of any one of arachidonic acid (AA), platelet activating factor (PAF) or collagen. PAF and its synthesis is disclosed by Hirth and Barner in Helv. Chim. Acta. Vol. 65; Fasc. 3, page 1059 (1982) [Compound 1-a on page 1061]. By titration of AA, collagen and PAF at various concentrations in 0.45 ml samples of PRP, the minimum amount of AA, collagen and PAF which produces maximum blood platelet aggregation in a given sample of human platelet rich plasma (PRP) was determined. This minimum amount was used when the compounds set forth above were tested for their ability to inhibit blood platelet aggregation in samples of PRP as described below.
In carrying out the tests, various concentrations of the test compound were added to separate samples of human platelet rich plasma (PRP). To each of these samples of PRP containing a specific concentration of one of the above test compounds, there was added the minimum amount of AA, PAF, or collagen calculated above. The controls are samples of PRP containing no test compound but only the minimum amount of AA, PAF, or collagen determined above. The percent aggregation of the various samples was determined by measuring the optical density of the samples and comparing them with the optical density of the controls. This determination was made two minutes after the maximum first phase response of PAF, AA or collagen. This determination was made with freshly prepared samples of test compounds. A second determination was made in the same manner with samples of PRP two hours after the addition of AA, PAF or collagen. The IC50, the dose at which the optical density of the samples decrease to a value which is fifty (50%) percent of the value of the control was determined by the method disclosed by Professor Born's article. The IC50 values for the minimum dose were made from concentration response curve. These IC50 's were determined in two separate tests using PRP from two separate donors. The results of the minimum dose of each of the test compounds which reduces fifty (50%) percent of the aggregation of the platelets produced by any one of AA, PAF, or collagen is set forth in the following Table: […]

[2] = tested on: cyclic AMP in human platelet rich plasma (PRP); test: Cyclic AMP production in human blood platelets (platelet rich plasma), protein binding method of Brown et al.; type: cell-based; conditions: 0.1 mM, percent increase in cyclic AMP compared to basal (vehicle alone), pH 7.4, 22 C, read-out: Cyclic AMP Production, o/o stimulative of Basal at 0.1 mM
Procedure: Cyclic AMP prevents aggregation of blood platelets. Through increasing cyclic AMP, the compounds of this invention prevent blood platelet aggregation. That the compounds of this invention increase cyclic AMP can be seen from the following test.
In this test, human platelet rich plasma (PRP) was prepared by centrifugation of blood treated with 0.38% by weight sodium citrate at 180×g (times gravity) for ten minutes. The PRP ([…] containing approximately 2×10^7 platelets) is incubated for two minutes at 22 C, with and without the test compound, in a Tris-HCl buffer for ten minutes pH 7.4 containing 5.5 mM HCl, 1 mM Mg SO4, 5 mM Na2 H PO4, 120 mM NaCl, and 5.5 mM glucose in a fluid volume of […]. The reaction was terminated by placing the samples in boiling water for 3 minutes. The boiled extract was assayed for cyclic AMP by the protein binding method of Brown et al. (Biochemical Journal 121:561-562, 1971). The activity of this test compound at 0.1 mM is measured as the percent increase in cyclic AMP production compared to base 1 (vehicle alone) production.

[3] = Platelet, aggregation induced by minimum amount of arachidonic acid (AA), read-out: Aggregation IC50, AA
[4] = aggregation induced by minimum amount of platelet activating factor (PAF), read-out: Aggregation IC50, PAF
[5] = Platelet, aggregation induced by minimum amount of collagen, read-out: Aggregation IC50, Collagen

Work on `CCCCC[C@H](O)CC[C@@H]1[C@@H]2[C@H](C[C@H]1O)O/C(=C\CCCC(=O)O)[C@H]2F` [Compound A, (5Z,7beta,9alpha,11alpha,15S)-6,9-epoxy-7-fluoro-11,15-dihydroxy-prost-5-en-1-oic acid monosodium salt] yielded an IC50 [1, 3] of 23 nM, an IC50 [1, 4] of 15 nM and an activation at 100 µM [2] of 998%.

With `CCCC[C@H](F)[C@H](O)CC[C@@H]1[C@@H]2[C@H](C[C@H]1O)O/C(=C\CCCC(=O)O)[C@H]2F` [Compound B, (5Z,7beta,9alpha,11alpha,15R,16S)-6,9-epoxy-7,16-difluoro-11,15-dihydroxy-prost-5-en-1-oic acid monosodium salt] the IC50 [1, 3] was 20 nM, the IC50 [1, 5] was 6 nM and the IC50 [1, 4] was 6 nM.

`CCCCC[C@H](O)/C=C/[C@@H]1[C@H]2C/C(=C/CCCC(=O)O)O[C@H]2C[C@H]1O` [PGI2, reference compound] showed an IC50 [1, 3] of 0.45 nM, an IC50 [1, 5] of 2 nM and an IC50 [1, 4] of 0.15 nM.
